Measurements taken from paper PMC8217170, “Phase Ib dose-escalation study of the hypoxia-modifier Myo-inositol trispyrophosphate in patients with hepatopancreatobiliary tumors” (Nature Communications, 2021).
Values joined by “and” are separate entries in the source; they are usually repeats but may differ in a detail not shown here. Equal entries are not always repeated.

Test: Plasma levels and pharmacokinetics of intravenous ITPP
[1] = individual patients, cohort 1 (1866 mg/m2)
[2] = individual patients, cohort 2 (3732 mg/m2)

## O=P1(O)OC2C3OP(=O)(O)OP(=O)(O)OC3C3OP(=O)(O)OP(=O)(O)OC3C2OP(=O)(O)O1 (centres unmarked) [ITPP, Myo-inositol trispyrophosphate]
Cohort 2, patient 7, day 2, hour 0, sample 8_2_1
  ITPP plasma levels: Concentration: 0 µg/mL
Cohort 2, patient 7, day 2, hour 9
  ITPP plasma levels, Concentration: 98.6 µg/mL
Cohort 2, patient 7, day 3, hour 0
  ITPP plasma levels, Concentration: 0 µg/mL
Cohort 2, patient 7, day 3, hour 9
  ITPP plasma levels, Concentration: 93.7 µg/mL
Cohort 3, 5600 mg/m2
  AUC: 1168.7 mg·h/L
  AUMC: 6445.9 h2*mg/L
  CL: 4.4 L/h
  Clast: 59.5 mg/L
  Cmax: 153.4 mg/L
  Cmin: 0.0 mg/L
  Elimination rate λz: 0.5 h⁻¹
  Half life/T0.5: 1.4 h
  MRT: 1.5 h
  Tlast: 10.0 h
  Tmax: 6.0 h
  VSS: 9.2 L
Cohort 4, 7000 mg/m2
  AUC: 1649.5 mg·h/L
  AUMC: 9421.8 h2*mg/L
  CL: 3.1 L/h
  Clast: 127.5 mg/L
  Cmax: 228.0 mg/L
  Cmin: 0.0 mg/L
  Elimination rate λz: 0.2 h⁻¹
  Half life/T0.5: 3.3 h
  MRT: 1.7 h
  Tlast: 10.0 h
  Tmax: 6.0 h
  VSS: 12.8 L
Cohort 5, 8750 mg/m2
  AUC: 1850.5 mg·h/L
  AUMC: 10396.4 h2*mg/L
  CL: 4.0 L/h
  Clast: 116.8 mg/L
  Cmax: 257.8 mg/L
  Cmin: 0.0 mg/L
  Elimination rate λz: 0.3 h⁻¹
  Half life/T0.5: 2.1 h
  MRT: 1.6 h
  Tlast: 10.0 h
  Tmax: 6.0 h
  VSS: 11.1 L
Cohort 6, 10500 mg/m2
  AUC: 2439.2 mg·h/L
  AUMC: 13886.7 h2*mg/L
  CL: 3.3 L/h
  Clast: 186.4 mg/L
  Cmax: 313.4 mg/L
  Cmin: 0.0 mg/L
  Elimination rate λz: 0.3 h⁻¹
  Half life/T0.5: 2.6 h
  MRT: 1.7 h
  Tlast: 10.0 h
  Tmax: 6.0 h
  VSS: 11.7 L
Cohort 7, 12390 mg/m2
  AUC: 2457.2 mg·h/L
  AUMC: 14095.2 h2*mg/L
  CL: 4.4 L/h
  Clast: 149.4 mg/L
  Cmax: 353.6 mg/L
  Cmin: 0.0 mg/L
  Elimination rate λz: 0.4 h⁻¹
  Half life/T0.5: 1.7 h
  MRT: 1.7 h
  Tlast: 10.0 h
  Tmax: 6.0 h
  VSS: 11.4 L
Cohort 8, 14500 mg/m2
  AUC: 2864.1 mg·h/L
  AUMC: 16280.4 h2*mg/L
  CL: 4.4 L/h
  Clast: 166.0 mg/L
  Cmax: 439.2 mg/L
  Cmin: 0.0 mg/L
  Elimination rate λz: 0.4 h⁻¹
  Half life/T0.5: 1.8 h
  MRT: 1.7 h
  Tlast: 10.0 h
  Tmax: 6.0 h
  VSS: 11.4 L
[1]
  AUCTmax: 338.2 mg·h/L and 372.1 mg·h/L and 311.3 mg·h/L and 349.1 mg·h/L
  AUC∞: 366.8 mg·h/L
  AUC∞ / Dose: 0.2 mg·h/L/mg
  AUMCTmax: 1863.8 h2*mg/L and 2050.4 h2*mg/L and 1825.7 h2*mg/L and 1904.2 h2*mg/L
  AUMC∞: 2201.9 h2*mg/L
  CLO: 5.1 L/h
  Clast: 15.7 mg/L and 46.6 mg/L and 22.8 mg/L and 33.9 mg/L
  Cmax: 45.8 mg/L and 54.7 mg/L and 55.3 mg/L and 42.2 mg/L
  Cmax / Dose: 0.0 mg/L/mg
  Cmin: 0 mg/L
  Elimination rate λz: 0.5 h⁻¹
  Half-life / T0.5: 1.3 h
  MRTTmax: 1.5 h (3×) and 1.9 h
  MRT∞: 2.0 h
  Tlast: 10 h (3×) and 9 h
  Tmax: 6.0 h (3×) and 8.5 h
  VSSO: 10.2 L
  VZO: 9.3 L
[2]
  AUCTmax: 745.9 mg·h/L and 761.5 mg·h/L and 1032.3 mg·h/L
  AUC∞: 826.4 mg·h/L and 896.6 mg·h/L and 1215.3 mg·h/L
  AUC∞ / Dose: 0.2 h*mg/L/mg (2×) and 0.3 h*mg/L/mg
  AUMCTmax: 4278.4 h2*mg/L and 4442.2 h2*mg/L and 6030.7 h2*mg/L
  AUMC∞: 5242.1 h2*mg/L and 6142.5 h2*mg/L and 8341.9 h2*mg/L
  CLO: 4.5 L/h and 4.2 L/h and 3.1 L/h
  Clast: 40.6 mg/L and 52.1 mg/L and 69.7 mg/L
  Cmax: 106.3 mg/L and 106.7 mg/L and 148.7 mg/L
  Cmax / Dose: 0.0 mg/L/mg
  Cmin: 0 mg/L
  Elimination rate λz: 0.5 /h and 0.4 /h (2×)
  Half-life / T0.5: 1.4 h and 1.8 h (2×)
  MRTTmax: 1.7 h and 1.8 h (2×)
  MRT∞: 2.3 h and 2.9 h (2×)
  Tlast: 10 h
  Tmax: 6.0 h
